The source of these data is publication PMC2963183, “Enzyme Inhibition by Molluscicidal Components of Myristica fragrans Houtt. in the Nervous Tissue of Snail Lymnaea acuminata” (Enzyme Research, 2009).

The subject of assay [1] is acid phosphatase (ACP). Conditions: citrate acid buffer, 37°C; no inhibitor; tissue homogenate supernatant.
Assay [2] concerns alkaline phosphatase (ALP). Particulars: glycine-NaOH buffer, MgCl2, 37°C; no inhibitor; tissue homogenate supernatant.
In assay [3] the test system is T1, acetylcholinesterase (AChE).
T1 construct: native, crude nervous tissue homogenate supernatant (1000 g), not purified
Put plainly: Ellman assay, […] nm, Lineweaver-Burk. The class given is biochemical, Lymnaea acuminata. Particulars: pH 8.0, 25°C; no inhibitor; tissue homogenate supernatant.

The target of assay [4] is T1, acetylcholinesterase (AChE). The assay is described as follows: Ellman assay, […] nm. The class given is biochemical, Lymnaea acuminata. Conditions: acetylthiocholine iodide, pH 8.0, 25°C, 15 min preincubation; tissue homogenate supernatant; competitive noncompetitive. (Ellman's reagent forms a yellow product with free thiols.)
The target of assay [5] is T2, alkaline phosphatase (ALP).
T2 construct: native, crude nervous tissue homogenate supernatant (5000 g), not purified; isoenzyme not identified
The assay is described as follows: 4-nitrophenol release, […] nm. The format is biochemical, Lymnaea acuminata. Particulars: 4-nitrophenyl phosphate, glycine-NaOH buffer, MgCl2, 37°C, 15 min preincubation at 25°C, tissue homogenate supernatant.

The target in assay [6] is T3, acid phosphatase (ACP).
T3 construct: native, crude nervous tissue homogenate supernatant (5000 g), not purified; isoenzyme not identified
The assay is described as follows: 4-nitrophenol release, […] nm. Particulars: 4-nitrophenyl phosphate, citrate acid buffer, 37°C, 15 min preincubation at 25°C, tissue homogenate supernatant. The format is biochemical, Lymnaea acuminata.

Broadly, the Km is the concentration of substrate that gives half-maximal velocity. As for `O=[N+]([O-])c1ccc(OP(=O)(O)O)cc1` [4-nitrophenyl phosphate], the figures for the Km in assay [1] and in assay [2] were 13.7 µM and 20 µM, respectively.

For `CC(=O)SCC[N+](C)(C)C` [acetylthiocholine iodide], the Km in assay [3] is 317 µM.

In general, IC50 refers to the point on the concentration scale where inhibition reaches its midpoint. The low end stands for inhibition by little substance, the high end for a need for much substance. Turning to `CCCCCCCCCCCCCC(=O)OCC(COC(=O)CCCCCCCCCCCCC)OC(=O)CCCCCCCCCCCCC` [trimyristin, 1,2,3-tritetradecanoylglycerol], the IC50 in assay [4] came out at 110 µM; in assay [5] (competitive noncompetitive), 180 µM; in assay [6] (uncompetitive), 160 µM.

Take `C=CCc1cc(OC)c2c(c1)OCO2` [myristicin, 4-methoxy-6-(2-propenyl)-1,3-benzodioxole]: the half-maximal inhibitory concentration (IC50) stood at 30 µM in assay [4], 60 µM in assay [5] (uncompetitive) and 70 µM in assay [6] (competitive).
